Values joined by “and” are separate entries in the source; they are usually repeats but may differ in a detail not shown here. Identical values can stand only once. Inconclusive results and toxic doses are left out. How the source made its calls: active means survival T/C of 150% or more; inactive means T/C below 125% in these data.
Tested on: CD2F1 mice, L1210 leukemia ip, survival T/C
Assay: NCI In Vivo Anticancer Drug Screen. Data for tumor model L1210 Leukemia (intraperitoneal) in CD2F1 (CDF1) mice
Settings: endpoint: mean survival time, higher = longer survival
Procedure, shortened: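 Tumor-bearing mice (transplanted tumor) were split into treated and vehicle control groups, and the measured endpoint of each treated group was divided by that of its vehicle controls.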

[1] = dose: 100.0 mg/kg/injection, schedule: Q04DX003 (ip), vehicle: saline with Tween-80
[2] = dose: 200.0 mg/kg/injection, schedule: Q04DX003 (ip), vehicle: saline with Tween-80
[3] = dose: 400.0 mg/kg/injection, schedule: Q04DX003 (ip), vehicle: saline with Tween-80
[4] = dose: 100.0 mg/kg/injection, schedule: Q01DX001 (ip), vehicle: saline with Tween-80
[5] = dose: 200.0 mg/kg/injection, schedule: Q01DX001 (ip), vehicle: saline with Tween-80
[6] = dose: 400.0 mg/kg/injection, schedule: Q01DX001 (ip), vehicle: saline with Tween-80
[7] = dose: 100.0 mg/kg/injection, schedule: Q01DX009 (ip), vehicle: saline with Tween-80
[8] = dose: 200.0 mg/kg/injection, schedule: Q01DX009 (ip), vehicle: saline with Tween-80
[9] = dose: 400.0 mg/kg/injection, schedule: Q01DX009 (ip), vehicle: saline with Tween-80
[10] = dose: 25.0 mg/kg/injection, schedule: Q01DX009 (ip), vehicle: saline with Tween-80
[11] = dose: 50.0 mg/kg/injection, schedule: Q01DX009 (ip), vehicle: saline with Tween-80

Measured: T/C

CC(=O)OC(CCl)C(Cl)CCl (centres undefined)
inactive: dose: 12.5 mg/kg/injection, schedule: Q04DX002 (ip), vehicle: saline with Tween-80 103 % of control | dose: 25.0 mg/kg/injection, schedule: Q04DX002 (ip), vehicle: saline with Tween-80 106 % of control | dose: 50.0 mg/kg/injection, schedule: Q04DX002 (ip), vehicle: saline with Tween-80 92 % of control | dose: 100.0 mg/kg/injection, schedule: Q01DX001 (ip), vehicle: saline sonified 95 % of control | dose: 200.0 mg/kg/injection, schedule: Q01DX001 (ip), vehicle: saline sonified 95 % of control | dose: 400.0 mg/kg/injection, schedule: Q01DX001 (ip), vehicle: saline sonified 108 % of control

CC1CN1C(=O)OCCOC(=O)N1CC1C (centres undefined)
inactive: dose: 200.0 mg/kg/injection, schedule: Q01DX Z (ip), vehicle: saline 120 % of control | dose: 300.0 mg/kg/injection, schedule: Q01DX Z (ip), vehicle: saline 117 % of control | dose: 450.0 mg/kg/injection, schedule: Q01DX Z (ip), vehicle: saline 117 % of control

CC(C)N1CCSC1=S
inactive: dose: 25.0 mg/kg/injection, schedule: Q01DX009 (ip), vehicle: saline sonified 101 % of control | dose: 50.0 mg/kg/injection, schedule: Q01DX009 (ip), vehicle: saline sonified 98 % of control | dose: 100.0 mg/kg/injection, schedule: Q01DX009 (ip), vehicle: saline sonified 106 % of control | [1] 100 % of control | dose: 200.0 mg/kg/injection, schedule: Q01DX009 (ip), vehicle: saline sonified 88 % of control | [2] 99 % of control | [3] 97 % of control

O=C(/C=C\c1ccccc1)/C=C/c1ccccc1
inactive: dose: 177.0 mg/kg/injection, schedule: Q01DX001 (ip), vehicle: other 96 % of control | dose: 267.0 mg/kg/injection, schedule: Q01DX001 (ip), vehicle: other 92 % of control | dose: 400.0 mg/kg/injection, schedule: Q01DX001 (ip), vehicle: other 104 % of control | dose: 600.0 mg/kg/injection, schedule: Q01DX001 (ip), vehicle: other 107 % of control

COc1ccc2c(ccc[n+]2C)c1
inactive: dose: 5.0 mg/kg/injection, schedule: Q01DX009 (ip), vehicle: saline 106 % of control | dose: 5.0 mg/kg/injection, schedule: Q04DX003 (ip), vehicle: saline 103 % of control | dose: 10.0 mg/kg/injection, schedule: Q01DX009 (ip), vehicle: saline 107 % of control | dose: 10.0 mg/kg/injection, schedule: Q04DX003 (ip), vehicle: saline 101 % of control | dose: 12.5 mg/kg/injection, schedule: Q01DX009 (ip), vehicle: alcohol 107 % of control | dose: 12.5 mg/kg/injection, schedule: Q04DX003 (ip), vehicle: acetone 104 % of control | dose: 20.0 mg/kg/injection, schedule: Q01DX009 (ip), vehicle: saline 106 % of control | dose: 20.0 mg/kg/injection, schedule: Q04DX003 (ip), vehicle: saline 109 % of control | dose: 25.0 mg/kg/injection, schedule: Q01DX009 (ip), vehicle: alcohol 116 % of control | dose: 25.0 mg/kg/injection, schedule: Q04DX003 (ip), vehicle: acetone 106 % of control | dose: 50.0 mg/kg/injection, schedule: Q04DX003 (ip), vehicle: acetone 106 % of control

Cc1nc2scc(C)c2c(=S)[nH]1
inactive: [4] 96 % of control | [5] 97 % of control | [6] 88 % of control

COCC1=Nc2c(ncnc2SCc2ccccc2)NN1
inactive: dose: 100.0 mg/kg/injection, schedule: Q01DX001 (ip), vehicle: other 95 % of control

CCCCCCCCCCCC[N+]1(C)CCC[N+](C)(CCCCCCCCCCCC)CC1 (centres undefined)
inactive: dose: 18.7 mg/kg/injection, schedule: Q01DX001 (ip), vehicle: saline with Tween-80 116 % of control | dose: 37.5 mg/kg/injection, schedule: Q01DX001 (ip), vehicle: saline with Tween-80 98 % of control | dose: 75.0 mg/kg/injection, schedule: Q01DX001 (ip), vehicle: saline with Tween-80 113 % of control and 101 % of control

CC1(C)CC(=O)C2OC2(C)C1 (centres undefined)
inactive: [7] 100 % of control | [1] 95 % of control | [8] 97 % of control | [2] 103 % of control | [9] 96 % of control | [3] 97 % of control

O=C1C2C3CCC(CC3)C2C(=O)C2C3CCC(C3)C12 (centres undefined)
inactive: [1] 100 % of control | [2] 92 % of control | [3] 88 % of control

OCC(F)(F)C(F)(F)C(F)(F)CO
inactive: dose: 100.0 mg/kg/injection, schedule: Q04DX003 (ip), vehicle: saline 101 % of control | dose: 200.0 mg/kg/injection, schedule: Q04DX003 (ip), vehicle: saline 107 % of control | dose: 400.0 mg/kg/injection, schedule: Q04DX003 (ip), vehicle: saline 104 % of control

Cc1cccc(Cl)c1C#N
inactive: [4] 104 % of control | [7] 94 % of control | [1] 107 % of control | [5] 106 % of control | [8] 100 % of control | [2] 101 % of control | [6] 106 % of control | [9] 90 % of control | [3] 100 % of control

Cn1cnc2cc(N)ccc21
inactive: dose: 50.0 mg/kg/injection, schedule: Q01DX009 (ip), vehicle: saline 95 % of control | dose: 100.0 mg/kg/injection, schedule: Q01DX009 (ip), vehicle: saline 98 % of control | dose: 200.0 mg/kg/injection, schedule: Q01DX009 (ip), vehicle: saline 98 % of control

Nc1nnnn1-c1ccc(O)cc1
inactive: [1] 104 % of control | [2] 98 % of control | [3] 104 % of control

Cc1nc2n3c(nc(C)c13)=CCC2
inactive: [10] 96 % of control | [11] 98 % of control | [7] 93 % of control | [1] 97 % of control

N#Cc1cccc[n+]1Cc1ccc([N+](=O)[O-])cc1
inactive: [10] 108 % of control | [11] 101 % of control

Cc1nc(Cl)c(C)c(C(=O)O)n1
inactive: dose: 12.5 mg/kg/injection, schedule: Q01DX009 (ip), vehicle: other 98 % of control | dose: 25.0 mg/kg/injection, schedule: Q01DX009 (ip), vehicle: other 102 % of control | dose: 50.0 mg/kg/injection, schedule: Q01DX009 (ip), vehicle: other 104 % of control | dose: 100.0 mg/kg/injection, schedule: Q01DX009 (ip), vehicle: other 96 % of control

ClCCOCCOc1ccc(C2CCCCC2)cc1
inactive: dose: 100.0 mg/kg/injection, schedule: Q04DX003 (ip), vehicle: saline sonified 97 % of control | dose: 200.0 mg/kg/injection, schedule: Q04DX003 (ip), vehicle: saline sonified 97 % of control | dose: 400.0 mg/kg/injection, schedule: Q04DX003 (ip), vehicle: saline sonified 92 % of control

C[CH2][Pb]([Cl])([CH2]C)[CH2]C
inactive: dose: 1.56 mg/kg/injection, schedule: Q01DX009 (ip), vehicle: other 103 % of control | dose: 3.12 mg/kg/injection, schedule: Q01DX009 (ip), vehicle: other 100 % of control | dose: 6.25 mg/kg/injection, schedule: Q01DX009 (ip), vehicle: other 90 % of control

Clc1cc(Cl)c2nc[nH]c2c1
inactive: [11] 91 % of control | [7] 95 % of control

COc1ccc(C2=NNc3n[nH]c(=S)n3N2)cc1OC
inactive: [7] 93 % of control | [1] 91 % of control | [8] 93 % of control | [2] 101 % of control | [9] 104 % of control | [3] 90 % of control

Reference: PubChem BioAssay AID256 (DTP/NCI, 2004)
